One block for each compound: values may come before it.
Legend:
[1] = tested on: renal, cerebral and skeletal muscle arterioles; details: read-out: EC50 as constrictor; cited from earlier work
[2] = tested on: isolated, pressured rat renal interlobular arteries; experiment: Isolated vessel studies: vasoconstrictor response (vascular diameter) to cumulative doses of 20-HETE analogs; type: cell-based
Experimental: General. Experiments were performed on 10 to 12-week old male Sprague-Dawley rats purchased from Harlan Sprague-Dawley Laboratories (Indianapolis, Ind.). The rats were housed in the animal care facility at the Medical College of Wisconsin, which is approved by the American Association for the Accreditation of Laboratory Animal Care. The animals had free access to food and water. All protocols involving animals received approval by the Animal Care Committee of the Medical College of Wisconsin.
(§1) Isolated vessel studies. Interlobular arterioles (70-120 μm inner diameter) were microdissected from the kidneys of rats. The vessels were mounted on glass micropipettes in a perfusion chamber containing physiological saline solution equilibrated with a 95% O2-5% CO2 gas mixture and maintained at 37° C. The vessel were secured to the pipettes and side branches were tied off with 10-0 silk suture. The inflow pipette was connected to a pressurized reservoir to control of intraluminal perfusion pressure, which was monitored using a transducer (Cobe, Lakewood, Colo.). The vessels were stretched to in vivo length measured before microdissection. The outflow cannula was clamped off and intraluminal pressure was maintained at 90 mm Hg during the experiment. Vascular diameters were measured with a video system composed of a stereo microscope (Carl Zeiss, Inc., Germany), a CCTV television camera (KP-130AU, Hitachi, Japan), a videocassette recorder (AG-7300, Panasonic, Japan), a television monitor (CVM-1271, Sony, Japan), and a video measuring system (VIA-100, Boeckeler Instrument Co., Tucson, Ariz.).
(§2) The composition of the perfusate and the bath was (in mM): 119 NaCl, 4.7 KCl, 1.17 MgSO4, 1.6 CaCl2, 12 NaHCO3, 1.18 NaH2PO4, 0.03 EDTA and 10 glucose, pH 7.4. Indomethacin (5 μM), baicalein (0.5 μM) and 17-ODYA (1 μM) were added to the bath to block the endogenous formation and metabolism of eicosanoids via the cyclooxygenase, lipoxygenase and cytochrome P450 pathways. After the equilibration period, cumulative dose response curves were generated for each of the 20-HETE analogs.
Effect of the position of the hydroxyl group on the vasoconstrictor response to 20-HETE. These experiments examined the effects of increasing concentrations of 5(S)-, 8(S)-, 12(S)-, 15(S)-, and 19(S)-HETE on the diameter of isolated, pressured rat renal interlobular arteries. All of these analogs have the same number of carbons, double bonds and molecular weight as 20-HETE (FIG. 1). The major difference between these compounds and 20-HETE is the position of the OH group along the carbon chain. Additional experiments were performed with arachidonic acid and 20-carboxyarachidonic acid, which are structurally similar to 20-HETE but lack a hydroxyl group on the 20th carbon and 20-hydroxyeicosa-6, 15-dienoic acid (reverse 20-HETE) which has the carboxy- and hydroxy-moieties on the 1st and 20th carbons reversed. Cumulative dose response curves were generated for each compound (10^−8 to 10^−6 M) in the presence of indomethacin, baicalein, and 17-ODYA. Vascular diameters were recorded 2 to 3 minutes after the addition of the compounds to the bath.
Effect of the double bonds and carbon chain length to the vasoconstrictor response to 20-HETE. We next examined the importance of the double bonds and the length of the carbon chain to the vasoconstrictor response to 20-HETE. In these studies, the double bonds in the 20-HETE molecule were removed creating partial and saturated 20-HETE derivatives (20-hydroxyeicosa-6(Z),15(Z) dienoic acid; 20-hydroxyeicosanoic acid, FIG. 1). 20-HETE was also shortened by one carbon, creating a 19-carbon analog (19-hydroxynonadeca-5(Z),8(Z),11(Z),14(Z)-tetraenoic acid, FIG. 1) and double bonds were removed, creating a saturated 19-carbon analog (19 hydroxynonadecanoic acid, FIG. 1). […]

[3] = tested on: vascular smooth muscle cells; details: read-out: EC50 as constrictor; cited from earlier work
[4] = tested on: LLC-PK1 cells; details: 20-HETE 10^−9 M; cited from earlier work
[5] = tested on: OK cells; details: 20-HETE 10^−9 M; cited from earlier work
[6] = tested on: vasoconstrictor response to 20-HETE in isolated renal interlobular arteries; experiment: 20-HETE antagonist activity: dose response curves to 20-HETE before and after addition of analog; type: cell-based, rat; details: analog 0.5 or 1 μM in bath, 20-HETE 10^−8 to 10^−6 M
Experimental: We also disclose below a test for 20-HETE antagonist activity. In this analysis, test compounds were analyzed by a cumulative dose response curve to 20-HETE generated before and after the addition of the test compound. […] We envision suitable antagonists as similarly blocking the vasoconstrictor response.
as §1, §2
20-HETE antagonist activity. […] In these experiments, cumulative dose response curves to 20-HETE (10^−8 to 10^−6 M) were generated before and after addition of 5(S)-HETE (0.5 μM), 8(S)-HETE (1 μM), 12(S)-HETE (0.5 μM), 15(S)-HETE (1 μM), 19(S)-HETE (1 μM), the C19-analog (1 μM), arachidonic acid (1 μM), 20-carboxy-arachidonic acid (1 μM), reverse 20-HETE (1 μM), saturated 20-HETE (1 μM), and the saturated C19-analog (1 μM) to the bath. Vascular diameters were recorded 2 to 3 minutes after the addition of each dose of 20-HETE to the bath.

SMILES: O=C(O)CCC/C=C\C/C=C\C/C=C\C/C=C\CCCCCO [20-HETE, 20-hydroxyeicosatetraenoic acid]
EC50 [1]: < 10 nM
threshold concentration that reduced vascular diameter ([2]; renal interlobular arterioles): 10 nM
EC50 [3]: < 10 nM
growth of cultured cells [4]: promotes the growth
growth of cultured cells [5]: promotes the growth

melting point: 86 °C
SMILES: O=C(O)CCCCCCCCCCCCCCCCCCCO [saturated 20-HETE derivative, 20-Hydroxyeicosanoic Acid]
effect on the diameter of renal interlobular arteries (vasoconstrictor/agonist activity) ([2]; 10^−8 to 10^−6 M (up to 1 μM), indomethacin, baicalein, 17-ODYA present, diameter 2 to 3 minutes after addition): no effect
effect of analog on the vasoconstrictor response to 20-HETE (antagonist activity) [6]: exhibited competitive antagonist activity
effect of analog on the vasoconstrictor response to 20-HETE (antagonist activity) ([6]; listed as saturated C20-analog): not as effective as the parent compounds

Source: patent US6605641B2, “20-HETE antagonists and agonists” (MCW Research Foundation, priority 1998, dated 2003)
